# Test system: Mycobacterium tuberculosis
# Assay: microbe, parasite or virus in culture
# Conditions: variant bovis BCG, 504 h
row,SMILES,IC50 [nM]
1,Nc1ncnc2c1c(-c1ccc(C(F)(F)F)cc1)cn2[C@@H]1O[C@H](CO)[C@@H](O)[C@H]1O,1160
2,Nc1ncnc2c1c(-c1cccc3c1oc1ccccc13)cn2[C@@H]1O[C@H](CO)[C@@H](O)[C@H]1O,190
3,Nc1ncnc2c1c(-c1ccccc1)cn2[C@@H]1O[C@H](CO)[C@@H](O)[C@H]1O,1340
4,Cc1ccc(-c2cn([C@@H]3O[C@H](CO)[C@@H](O)[C@H]3O)c3ncnc(N)c23)cc1C,1130
5,Nc1ncnc2c1c(-c1ccc3c4c(cccc14)CC3)cn2[C@@H]1O[C@H](CO)[C@@H](O)[C@H]1O,1740
6,C#Cc1cn([C@@H]2O[C@H](CO)[C@@H](O)[C@H]2O)c2ncnc(N)c12,130
7,Nc1ncnc2c1c(/C=C/c1ccccc1)cn2[C@@H]1O[C@H](CO)[C@@H](O)[C@H]1O,1300
8,Nc1ncnc2c1c(-c1ccc(-c3ccccc3)cc1)cn2[C@@H]1O[C@H](CO)[C@@H](O)[C@H]1O,1680
9,CC(C)(C)c1ccc(-c2cn([C@@H]3O[C@H](CO)[C@@H](O)[C@H]3O)c3ncnc(N)c23)cc1,4540
10,Nc1ncnc2c1c(-c1cn[nH]c1)cn2[C@@H]1O[C@H](CO)[C@@H](O)[C@H]1O,3080
11,Nc1ncnc2c1c(-c1cc3ccccc3o1)cn2[C@@H]1O[C@H](CO)[C@@H](O)[C@H]1O,2270
12,Nc1ncnc2c1c(-c1cccc3c1Oc1ccccc1S3)cn2[C@@H]1O[C@H](CO)[C@@H](O)[C@H]1O,4530
13,Nc1ncnc2c1c(-c1cc[nH]n1)cn2[C@@H]1O[C@H](CO)[C@@H](O)[C@H]1O,48000
14,Nc1ncnc2c1c(-c1cccc3ccccc13)cn2[C@@H]1O[C@H](CO)[C@@H](O)[C@H]1O,1870
15,Nc1ncnc2c1c(-c1ccc3c(c1)OCO3)cn2[C@@H]1O[C@H](CO)[C@@H](O)[C@H]1O,1380
16,Nc1ncnc2c1c(-c1ncc[nH]1)cn2[C@@H]1O[C@H](CO)[C@@H](O)[C@H]1O,> 100000
17,COc1ccc(-c2cn([C@@H]3O[C@H](CO)[C@@H](O)[C@H]3O)c3ncnc(N)c23)cc1,2080

row,SMILES,IC50 [nM]
1,Nc1ncnc2c1c(-c1ccc[nH]1)cn2[C@@H]1O[C@H](CO)[C@@H](O)[C@H]1O,7270
2,COc1cc(-c2cn([C@@H]3O[C@H](CO)[C@@H](O)[C@H]3O)c3ncnc(N)c23)cc(OC)c1OC,7050
3,Nc1ncnc2c1c(-c1cc3ccccc3c3ccccc13)cn2[C@@H]1O[C@H](CO)[C@@H](O)[C@H]1O,1900
4,Nc1ncnc2c1c(-c1c[nH]cn1)cn2[C@@H]1O[C@H](CO)[C@@H](O)[C@H]1O,> 100000
5,CC(C)c1cccc(-c2cn([C@@H]3O[C@H](CO)[C@@H](O)[C@H]3O)c3ncnc(N)c23)c1,6750
6,Nc1ncnc2c1c(-c1ccc(-c3ccc4ccccc4c3)cc1)cn2[C@@H]1O[C@H](CO)[C@@H](O)[C@H]1O,74400
7,Nc1ncnc2c1c(-c1ccc3ccccc3c1)cn2[C@@H]1O[C@H](CO)[C@@H](O)[C@H]1O,390
8,Nc1ncnc2c1c(-c1cc[nH]c1)cn2[C@@H]1O[C@H](CO)[C@@H](O)[C@H]1O,1120
9,Nc1ncnc2c1c(-c1cccc3c1Sc1ccccc1S3)cn2[C@@H]1O[C@H](CO)[C@@H](O)[C@H]1O,44300
10,Nc1ncnc2c1c(-c1ccc(COc3cccc4ccccc34)cc1)cn2[C@@H]1O[C@H](CO)[C@@H](O)[C@H]1O,6390
11,CSc1ccc(-c2cn([C@@H]3O[C@H](CO)[C@@H](O)[C@H]3O)c3ncnc(N)c23)cc1,360
12,Nc1ncnc2c1c(-c1c[nH]nn1)cn2[C@@H]1O[C@H](CO)[C@@H](O)[C@H]1O,69000
13,Nc1ncnc2c1c(-c1nccs1)cn2[C@@H]1O[C@H](CO)[C@@H](O)[C@H]1O,2510
14,Nc1ncnc2c1c(-c1ccoc1)cn2[C@@H]1O[C@H](CO)[C@@H](O)[C@H]1O,8310
15,CC(C)Oc1ccc(-c2cn([C@@H]3O[C@H](CO)[C@@H](O)[C@H]3O)c3ncnc(N)c23)cc1,3070
16,CC(C)c1ccc(-c2cn([C@@H]3O[C@H](CO)[C@@H](O)[C@H]3O)c3ncnc(N)c23)cc1,5290
17,Nc1ncnc2c1c(-c1ccsc1)cn2[C@@H]1O[C@H](CO)[C@@H](O)[C@H]1O,3930
